Columns and labels:
Type in all cases: biochemical
human NTPDase1 = biological target: T1, human NTPDase1 (Homo sapiens, UniProt P49961); experiment: Malachite green assay, human NTPDase1; conditions: 2 μM compound; 50 µM ATP; COS-7 membrane preparation; read-out: % inhibition at 2 μM concentration, NTPDase1
T1 construct: expressed in transfected cells; host or cells: COS-7 cells (membrane preparation)
T1 sequence (P49961 1-510): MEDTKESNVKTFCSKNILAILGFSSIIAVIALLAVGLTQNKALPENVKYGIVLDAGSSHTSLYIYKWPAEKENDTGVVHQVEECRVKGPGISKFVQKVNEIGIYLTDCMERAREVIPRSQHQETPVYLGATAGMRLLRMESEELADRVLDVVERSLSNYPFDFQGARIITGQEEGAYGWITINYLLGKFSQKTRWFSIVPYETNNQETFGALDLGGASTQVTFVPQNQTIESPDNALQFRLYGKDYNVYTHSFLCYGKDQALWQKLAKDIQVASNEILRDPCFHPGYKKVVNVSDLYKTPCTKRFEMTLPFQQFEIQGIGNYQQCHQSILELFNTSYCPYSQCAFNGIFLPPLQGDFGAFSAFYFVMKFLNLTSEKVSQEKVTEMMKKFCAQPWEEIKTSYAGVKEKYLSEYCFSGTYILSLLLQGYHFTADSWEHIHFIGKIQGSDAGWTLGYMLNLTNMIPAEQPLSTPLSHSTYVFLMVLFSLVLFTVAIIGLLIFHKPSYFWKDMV
Method: (§1) Membrane preparations expressing human NTPDase1, -2, -3, or -8, respectively, were obtained as previously described ([Sévigny et al., 1997]; [Cogan et al., 1999]; [Kukulski et al., 2005]; [Lecka et al., 2013]; [Lee et al., 2018]). Enzyme inhibition assays were performed using the malachite green assay in analogy to published procedures with some modifications ([Dou et al., 2018]). The reaction buffer contained 10 mM HEPES, 2 mM CaCl2, and 1 mM MgCl2 (pH 7.4) in a final volume of 50 μL in transparent 96-well half-area plates. The compounds were initially tested at a final concentration of 2 µM using a COS-7-cell membrane preparation expressing the appropriate NTPDase isoenzyme (protein amount: 143 ng for NTPDase1, 175 ng for NTPDase2, 152 ng for NTPDase3, and 175 ng for NTPDase8). Preincubated of the enzyme preparations was perfomred at 37°C in the presence or absence of test compounds with gentle shaking (Eppendorf Thermomixer comfort at 500 rpm) for 5 min. […] ([Kukulski et al., 2005]). After 15 min of incubation at 37°C with gentle shaking, the reaction was stopped by the addition of the detection reagents (20 µL malachite green solution, 0.6 mM, and 30 µL of ammonium molybdate solution, 20 mM, in 1.5 M sulfuric acid). The released inorganic phosphate was quantified after 20 min of gentle shaking at 25°C by measuring the absorption of the malachite green-phosphomolybdate complex at 600 nm using a BMG PheraStar FS plate reader (BMG Labtech GmbH, Ortenberg, Germany). The corrected absorption was calculated by subtracting the absorption of the negative control samples, which were incubated with previously denatured enzyme (90°C, 15 min). Full concentration-inhibition curves were determined with inhibitor concentrations ranging from 0.03 to 30 µM in the presence of 2% DMSO. Inhibition-type experiments were performed with 25, 50, 100, 150 and 200 µM ATP as substrate for NTPDase2 in the presence of inhibitor 20 (0, 0.25, 0.5, and 1 µM) and 25, 50, 100 and 150 µM ATP substrate for NTPDase3 and compound 42 (0.25, 0.5, and 1 µM). For all of the presented data, at least three independent experiments were performed, and IC50 values were calculated by GraphPad Prism 8 software.
(§2) Inhibition of human NTPDases was performed using the malachite green assay, which was established on a robotic system (Z’ factors > 0.70) ([Baykov et al., 1988]; [Fiene et al., 2015]). The malachite green assay enables the detection of the phosphate produced by the enzymatic hydrolysis of nucleotides. A fixed substrate concentration of 50 µM ATP for NTPDase1 and 100 µM for NTPDase2, -3, and -8 was employed. Test compounds were initially screened at a concentration of 2 μM. […] A total of 48 synthesized anthraquinone derivatives including 14 new compounds not previously described in the literature were evaluated for their inhibitory activity at human NTPDase1, -2, -3, and -8 (for results see Table 1).

human NTPDase2 = biological target: T2, human NTPDase2 (Homo sapiens, UniProt Q9Y5L3); experiment: Malachite green assay, human NTPDase2; conditions: 100 µM ATP, COS-7 membrane preparation; for inhibition at 2 µM: 2 μM compound, read-out: % inhibition at 2 μM concentration, NTPDase2; for IC50: read-out: IC50 ± SEM, NTPDase2
T2 construct: expressed in transfected cells; host or cells: COS-7 cells (membrane preparation)
T2 sequence (Q9Y5L3 1-495): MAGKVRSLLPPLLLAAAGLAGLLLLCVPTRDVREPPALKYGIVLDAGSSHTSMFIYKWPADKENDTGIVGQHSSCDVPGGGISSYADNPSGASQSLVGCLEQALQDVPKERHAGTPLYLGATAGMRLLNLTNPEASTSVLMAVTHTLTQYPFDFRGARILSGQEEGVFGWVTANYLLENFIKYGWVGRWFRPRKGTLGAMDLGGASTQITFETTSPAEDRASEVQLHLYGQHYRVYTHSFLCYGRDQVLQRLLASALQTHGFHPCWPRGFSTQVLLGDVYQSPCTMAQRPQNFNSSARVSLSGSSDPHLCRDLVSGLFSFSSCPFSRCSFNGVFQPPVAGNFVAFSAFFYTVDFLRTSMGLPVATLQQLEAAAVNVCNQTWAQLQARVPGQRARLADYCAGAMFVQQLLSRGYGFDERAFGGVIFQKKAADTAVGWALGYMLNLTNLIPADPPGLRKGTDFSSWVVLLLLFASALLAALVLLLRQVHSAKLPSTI
Method: as §1, §2

human NTPDase3 = biological target: T3, human NTPDase3 (Homo sapiens, UniProt O75355); experiment: Malachite green assay, human NTPDase3; conditions: for inhibition at 2 µM: 2 μM compound, read-out: % inhibition at 2 μM concentration, NTPDase3; for inhibition at 2 µM / IC50: 100 µM ATP, COS-7 membrane preparation; for IC50: read-out: IC50 ± SEM, NTPDase3
T3 construct: expressed in transfected cells; host or cells: COS-7 cells (membrane preparation)
T3 sequence (O75355 1-529): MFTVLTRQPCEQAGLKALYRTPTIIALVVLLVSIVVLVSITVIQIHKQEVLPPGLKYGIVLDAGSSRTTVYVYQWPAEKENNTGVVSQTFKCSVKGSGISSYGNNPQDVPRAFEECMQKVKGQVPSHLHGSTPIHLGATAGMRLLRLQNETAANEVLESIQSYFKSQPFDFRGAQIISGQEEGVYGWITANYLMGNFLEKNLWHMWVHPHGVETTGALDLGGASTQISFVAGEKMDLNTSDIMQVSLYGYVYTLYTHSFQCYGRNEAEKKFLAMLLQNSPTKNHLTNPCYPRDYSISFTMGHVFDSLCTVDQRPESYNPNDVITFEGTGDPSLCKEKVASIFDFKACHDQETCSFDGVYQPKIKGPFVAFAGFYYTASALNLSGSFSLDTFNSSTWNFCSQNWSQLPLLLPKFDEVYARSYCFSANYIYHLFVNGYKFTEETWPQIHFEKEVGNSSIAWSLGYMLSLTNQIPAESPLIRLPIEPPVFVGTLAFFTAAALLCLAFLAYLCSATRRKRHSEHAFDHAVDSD
Method: as §1, §2

human NTPDase8 = biological target: T4, human NTPDase8 (Homo sapiens, UniProt Q5MY95); experiment: Malachite green assay, human NTPDase8; conditions: 2 μM compound; 100 µM ATP; COS-7 membrane preparation; read-out: % inhibition at 2 μM concentration, NTPDase8
T4 construct: expressed in transfected cells; host or cells: COS-7 cells (membrane preparation)
T4 sequence (Q5MY95 1-495): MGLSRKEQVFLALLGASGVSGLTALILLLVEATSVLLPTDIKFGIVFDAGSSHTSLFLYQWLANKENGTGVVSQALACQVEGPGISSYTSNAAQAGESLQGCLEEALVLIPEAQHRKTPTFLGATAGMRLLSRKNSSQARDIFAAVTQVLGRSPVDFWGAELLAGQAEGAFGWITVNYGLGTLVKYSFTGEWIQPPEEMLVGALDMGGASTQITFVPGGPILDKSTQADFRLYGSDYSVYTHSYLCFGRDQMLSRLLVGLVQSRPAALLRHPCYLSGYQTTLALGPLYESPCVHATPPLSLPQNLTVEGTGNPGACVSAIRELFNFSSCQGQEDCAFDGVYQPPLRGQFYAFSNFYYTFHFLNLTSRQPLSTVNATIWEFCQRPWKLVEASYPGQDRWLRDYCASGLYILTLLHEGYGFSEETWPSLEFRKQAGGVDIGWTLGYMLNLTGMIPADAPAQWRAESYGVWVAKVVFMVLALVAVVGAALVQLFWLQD
Method: as §1, §2

inhibition at 2 µM (human NTPDase1)	inhibition at 2 µM (human NTPDase2)	inhibition at 2 µM (human NTPDase3)	inhibition at 2 µM (human NTPDase8)	IC50 (human NTPDase2)	IC50 (human NTPDase3)	SMILES	inhibition type, NTPDase3 (human NTPDase3; Hanes-Woolf plot, 25-150 µM ATP, inhibitor 0.25, 0.5, 1 µM)
-19%	17%	-25%	-12%	–	–	Nc1ccc(Nc2cc(S(=O)(=O)O)c(N)c3c2C(=O)c2ccccc2C3=O)cc1 [Compound 25]	–
3%	–	-21%	3%	5620 ± 720 nM	–	Cc1ccc2ccccc2c1Nc1cc(S(=O)(=O)O)c(N)c2c1C(=O)c1ccccc1C2=O [Compound 16]	–
2%	–	9%	-1%	5450 ± 700 nM	–	Cc1cc(Cl)ccc1Nc1cc(S(=O)(=O)O)c(N)c2c1C(=O)c1ccccc1C2=O [Compound 38]	–
-12%	12%	–	-9%	–	723 ± 32 nM	Nc1c(S(=O)(=O)O)cc(Nc2ccc(O)c(C(=O)O)c2)c2c1C(=O)c1ccccc1C2=O [Compound 33, 1-amino-4-(3-carboxy-4-hydroxyphenylamino)-9,10-dioxo-9,10-dihydroanthracene-2-sulfonate]	–
-6%	3%	0%	-2%	–	–	COc1cccc(Nc2cc(C)c(N)c3c2C(=O)c2ccccc2C3=O)c1 [Compound 55]	–
33%	–	21%	10%	1730 ± 290 nM	–	Nc1c(S(=O)(=O)O)cc(Nc2ccc(Oc3ccc(Br)cc3)cc2)c2c1C(=O)c1ccccc1C2=O [Compound 46]	–
-32%	19%	–	3%	–	15300 ± 2500 nM	Nc1c(S(=O)(=O)O)cc(Nc2cccc([N+](=O)[O-])c2)c2c1C(=O)c1ccccc1C2=O [Compound 24]	–
51%	–	44%	27%	832 ± 53 nM	–	Cc1ccc(Sc2ccc(Nc3cc(S(=O)(=O)O)c(N)c4c3C(=O)c3ccccc3C4=O)cc2)cc1C [Compound 51]	–
-20%	-2%	–	-17%	–	4040 ± 470 nM	Nc1c(S(=O)(=O)O)cc(Nc2ccc(Cl)cc2C(=O)O)c2c1C(=O)c1ccccc1C2=O [Compound 36]	–
1%	5%	32%	5%	–	–	O=C(O)c1cc(Nc2cc(S(=O)(=O)O)cc3c2C(=O)c2ccccc2C3=O)ccc1O [Compound 58]	–
15%	–	7%	6%	934 ± 136 nM	–	Nc1c(S(=O)(=O)O)cc(Nc2ccc(Sc3ccccc3)cc2)c2c1C(=O)c1ccccc1C2=O [Compound 44]	–
-4%	12%	–	-26%	–	8960 ± 1080 nM	Nc1c(S(=O)(=O)O)cc(Nc2cccc(Br)c2)c2c1C(=O)c1ccccc1C2=O [Compound 22]	–
-12%	12%	-3%	-3%	–	–	Nc1c(S(=O)(=O)O)cc(NCCc2ccccc2)c2c1C(=O)c1ccccc1C2=O [Compound 13]	–
-1%	15%	–	-11%	–	1640 ± 260 nM	Nc1c(S(=O)(=O)O)cc(Nc2cccc3cccc(S(=O)(=O)O)c23)c2c1C(=O)c1ccccc1C2=O [Compound 17]	–
0%	13%	–	-35%	–	4720 ± 400 nM	Nc1c(S(=O)(=O)O)cc(Nc2ccc3cc(C(=O)O)ccc3c2)c2c1C(=O)c1ccccc1C2=O [Compound 19]	–
10%	5%	–	-20%	–	1730 ± 550 nM	Nc1ccc(Nc2cc(S(=O)(=O)O)c(N)c3c2C(=O)c2ccccc2C3=O)cc1S(=O)(=O)O [Compound 32]	–

SMILES	inhibition at 2 µM (human NTPDase1)	inhibition at 2 µM (human NTPDase2)	inhibition at 2 µM (human NTPDase3)	inhibition at 2 µM (human NTPDase8)	IC50 (human NTPDase2)	IC50 (human NTPDase3)	inhibition type, NTPDase3 (human NTPDase3; Hanes-Woolf plot, 25-150 µM ATP, inhibitor 0.25, 0.5, 1 µM)
Nc1c(S(=O)(=O)O)cc(Nc2ccc(S(=O)(=O)O)c(Nc3nc(Cl)nc(Cl)n3)c2)c2c1C(=O)c1ccccc1C2=O [Compound 42, 1-amino-4-[3-(4,6-dichlorotriazin-2-ylamino)-4-sulfophenylamino]-9,10-dioxo-9,10-dihydroanthracene-2-sulfonate]	-2%	10%	–	-7%	–	390 ± 41 nM	mixed-type
